Marks after values point to notes of the source that are not given here.
Columns and labels:
[1] = system: high fat diet fed male Wistar rats; experiment: Anti-obesity activity in high fat diet fed rats; format: in vivo, rat; details: Group III, Orlistat 30 mg/kg
Procedure: Objective: The objective was to investigate the effect of the composition against high fat diet fed rats.
Animals: male Wistar rats (160 to 200 g); no. of animals: 36; housing: 3/cage, 12 hrs light/dark cycle; temperature: 25±2° c.
Model & composition of the diet: high fat diet in rats: 25% lard, 5% soybean oil; 5% starch; 65% normal commercial available rat feed
Groups: male Wistar rats were divided into six groups with six animals in each group.

[2] = Hydrogen peroxide (H2O2) scavenging activity; format: biochemical
Procedure: Hydrogen peroxide scavenging activity of the composition was estimated in this study where initially, composition solutions were prepared at different concentrations in distilled water and the resultant solutions were mixed in 0.6 ml of 40 mM H2O2 solution prepared in phosphate buffer (0.1 M pH 7.4) and incubated for 10 min. The absorbance was measured at 230 nm against a blank solution containing H2O2. Similar procedure was repeated for the composition, mangiferin, and quercetin. The amount of hydrogen peroxide radical inhibited was calculated using the following equation. The result is expressed as % H2O2 radical scavenging activity.
[formula] [formula] where: Abs control—Absorbance of H2O2 radical Abs sample—Absorbance of sample extract/standard (the composition, mangiferin and quercetin) Result: […]

[3] = Lipid peroxidation inhibitory assay (TBARS, egg yolk homogenate); format: biochemical; details: Sample Concentration: 100-500 μg/ml
Procedure: A modified thiobarbituric acid reactive species (TBARS) assay (Ohkowa et al., 1979) is used to measure lipid peroxidation formed using egg yolk homogenate as lipid rich media (Ruberto et al., 2000).
Take 0.5 ml of egg homogenate (10% in distilled water) and 0.1 ml of test sample in the concentration range 100-500 μg/ml in a test tube and volume made up to 1 ml by adding distilled water. Finally add 0.05 ml ferrous sulphate (0.07M) to the above mixture and incubated for 30 min to induce the lipid peroxidation. Thereafter added 1.5 ml of 20% acetic acid (pH 3.5) and 1.5 ml of (0.8% in 1.1% SDS) TBA and 0.05 ml (20%) TCA then heated in boiling water bath for 60 min. After cooling 5 ml of butanol was added to all the test tubes and centrifuged at 3000 rpm for 10 min. Measured the absorbance of the organic upper layer at 532 nm. The percentage inhibition of lipid peroxidation was calculated from the formula,
[formula] where: Ab (cont)—is the absorbance of the control Ab (test sample)—is the absorbance of the test sample/standard

SMILES | Atherogenic Index [1] | BAT (brown adipose tissue) [1] | Difference in body weight gain [1] | Epididymal fat pad Left [1] | Epididymal fat pad Right [1] | Liver organ weight [1] | % H2O2 radical scavenging activity ([2]; 10 μg/ml) [%] | % H2O2 radical scavenging activity ([2]; 20 μg/ml) [%] | % H2O2 radical scavenging activity ([2]; 30 μg/ml) [%] | % H2O2 radical scavenging activity ([2]; 40 μg/ml) [%] | Lipid peroxidation % inhibition [3] [%]
CCCCCCCCCCC[C@@H](C[C@@H]1OC(=O)[C@H]1CCCCCC)OC(=O)[C@H](CC(C)C)NC=O [Orlistat] | 1.39 ± 0.15^***b | 0.28 ± 0.01^nsb | 79.82 ± 2.58 ^b | 0.52 ± 0.03^nsb | 0.55 ± 0.02^nsb | 2.8 ± 0.08***^b |  |  |  |  | 
O=c1c(O)c(-c2ccc(O)c(O)c2)oc2cc(O)cc(O)c12 [Quercetin(Standard), Quercetin] |  |  |  |  |  |  | 5.6 | 14.55 | 18.86 | 33.96 | 53.44

Source: patent US10646527B2, “Method of using a Mangifera indica composition in the treatment of obesity” (Vidya Herbs, Inc., priority 2015, dated 2020)
